Measured values published in patent US20250120397A1, “PEST CONTROL METHOD” (National Chung Hsing University, priority 2023, published 2025).

What was measured:
Format in all cases: in vivo
[1] = test system: Tetranychus urticae (two-spotted spider mite); experiment: 24-hour fumigation in sealed 1-L container, fatality rate
Excerpt: (§1) Sitophilus oryzae (rice weevil), Tetranychus urticae (two-spotted spider mite), Lasioderma serricorne (cigarette beetle), Blattella germanica (German cockroach), Anoplolepis longipes (long-legged ant), and Solenopsis invicta (red imported fire ant) were used as the test objects of this experiment and were each put into several 1-L containers. A carrier containing an isododecane (or 2,2,4,6,6-pentamethylheptane to be exact) at each of a plurality of predetermined concentrations (i.e., 2.5, 5, 10, 20, 30, and 40 mg) was then put into one of the 1-L containers of each test object, before the containers were sealed to start a 24-hour fumigation process. After that, the containers were aerated, and the numbers of deaths of each kind of pests were counted.
(§2) Sitophilus oryzae, Tetranychus urticae, Lasioderma serricorne, Blattella germanica, Anoplolepis longipes, and Solenopsis invicta were each put into several 1-L containers. A carrier containing each of n-dodecane, n-decane, 2-methylnonane (an isodecane), and 2,2,4,6,6-pentamethylheptane (an isododecane) at a concentration of 30 mg was then put into one of the 1-L containers of each test object, before the containers were sealed to start a 24-hour fumigation process. After that, the containers were aerated, and the numbers of deaths of each kind of pests were counted.

[2] = test system: Solenopsis invicta (red imported fire ant); experiment: as above
Excerpt: as §1, §2

[3] = test system: Anoplolepis longipes (long-legged ant); experiment: as above
Excerpt: as §1, §2

[4] = test system: Sitophilus oryzae (rice weevil); experiment: as above
Excerpt: as §1, §2

[5] = test system: Blattella germanica (German cockroach); experiment: as above
Excerpt: as §1, §2

[6] = test system: Lasioderma serricorne (cigarette beetle); experiment: as above
Excerpt: as §1, §2

mosquito larvae = experiment: Mosquito larvae killing in 100 mL deionized water, 24 hours, fatality rate; conditions: uncovered
Description: Artificially raised non-pathogenic mosquito larvae were divided into a plurality of groups each including 30 larvae. Each group of larvae was put into a 1-L container together with 100 mL of deionized water. Then, a reagent containing a spreading agent for agricultural use as well as an isododecane and an isohexadecane in a ratio of 4:1 was added into the deionized water in each container at one of a plurality of predetermined doses and thoroughly mixed. The containers were left uncovered. After 24 hours, the numbers of deaths of the mosquito larvae were counted.

[7] = Table 2: compound at 30 mg in 1-L container

## CCCCCCCCCCCC [n-dodecane]
[1]; [7]
  Fatality rate (%) Tetranychus urticae: 95%
[2]; [7]
  Fatality rate (%) Solenopsis invicta: 5%
[3]; [7]
  Fatality rate (%) Anoplolepis longipes: 25%
[4]; [7]
  Fatality rate (%) Sitophilus oryzae: 50%
[5]; [7]
  Fatality rate (%) Blattella germanica: 22.22%
[6]; [7]
  Fatality rate (%) Lasioderma serricorne: 100%

## CC(CC(C)(C)C)CC(C)(C)C [2,2,4,6,6-pentamethylheptane]
Mosquito larvae; dose 2.5 mg in 100 mL deionized water
  Fatality rate (%) of mosquito larvae: 33%
Mosquito larvae; dose 5 mg in 100 mL deionized water
  Fatality rate (%) of mosquito larvae: 50%
Mosquito larvae; dose 10 mg in 100 mL deionized water
  Fatality rate (%) of mosquito larvae: 80%
Mosquito larvae; dose 20 mg in 100 mL deionized water
  Fatality rate (%) of mosquito larvae: 100%
Mosquito larvae; dose 40 mg in 100 mL deionized water
  Fatality rate (%) of mosquito larvae: 100%
[1]; [7]
  Fatality rate (%) Tetranychus urticae: 100%
[1]; dose 2.5 mg in 1-L container
  Fatality rate (%) Tetranychus urticae: 45%
[1]; dose 5 mg in 1-L container
  Fatality rate (%) Tetranychus urticae: 72%
[1]; dose 10 mg in 1-L container
  Fatality rate (%) Tetranychus urticae: 100%
[1]; dose 20 mg in 1-L container
  Fatality rate (%) Tetranychus urticae: 100%
[1]; dose 30 mg in 1-L container
  Fatality rate (%) Tetranychus urticae: 100%
[1]; dose 40 mg in 1-L container
  Fatality rate (%) Tetranychus urticae: 100%
[2]; [7]
  Fatality rate (%) Solenopsis invicta: 100%
[2]; dose 2.5 mg in 1-L container
  Fatality rate (%) Solenopsis invicta: 32%
[2]; dose 5 mg in 1-L container
  Fatality rate (%) Solenopsis invicta: 55%
[2]; dose 10 mg in 1-L container
  Fatality rate (%) Solenopsis invicta: 100%
[2]; dose 20 mg in 1-L container
  Fatality rate (%) Solenopsis invicta: 100%
[2]; dose 30 mg in 1-L container
  Fatality rate (%) Solenopsis invicta: 100%
[2]; dose 40 mg in 1-L container
  Fatality rate (%) Solenopsis invicta: 100%
[3]; [7]
  Fatality rate (%) Anoplolepis longipes: 100%
[3]; dose 2.5 mg in 1-L container
  Fatality rate (%) Anoplolepis longipes: 8%
[3]; dose 5 mg in 1-L container
  Fatality rate (%) Anoplolepis longipes: 14%
[3]; dose 10 mg in 1-L container
  Fatality rate (%) Anoplolepis longipes: 32%
[3]; dose 20 mg in 1-L container
  Fatality rate (%) Anoplolepis longipes: 80%
[3]; dose 30 mg in 1-L container
  Fatality rate (%) Anoplolepis longipes: 100%
[3]; dose 40 mg in 1-L container
  Fatality rate (%) Anoplolepis longipes: 100%
[4]; [7]
  Fatality rate (%) Sitophilus oryzae: 100%
[4]; dose 2.5 mg in 1-L container
  Fatality rate (%) Sitophilus oryzae: 0%
[4]; dose 5 mg in 1-L container
  Fatality rate (%) Sitophilus oryzae: 7%
[4]; dose 10 mg in 1-L container
  Fatality rate (%) Sitophilus oryzae: 22%
[4]; dose 20 mg in 1-L container
  Fatality rate (%) Sitophilus oryzae: 30%
[4]; dose 30 mg in 1-L container
  Fatality rate (%) Sitophilus oryzae: 100%
[4]; dose 40 mg in 1-L container
  Fatality rate (%) Sitophilus oryzae: 100%
[5]; [7]
  Fatality rate (%) Blattella germanica: 100%
[5]; dose 2.5 mg in 1-L container
  Fatality rate (%) Blattella germanica: 7%
[5]; dose 5 mg in 1-L container
  Fatality rate (%) Blattella germanica: 18%
[5]; dose 10 mg in 1-L container
  Fatality rate (%) Blattella germanica: 38%
[5]; dose 20 mg in 1-L container
  Fatality rate (%) Blattella germanica: 88.89%
[5]; dose 30 mg in 1-L container
  Fatality rate (%) Blattella germanica: 100%
[5]; dose 40 mg in 1-L container
  Fatality rate (%) Blattella germanica: 100%
[6]; [7]
  Fatality rate (%) Lasioderma serricorne: 100%
[6]; dose 2.5 mg in 1-L container
  Fatality rate (%) Lasioderma serricorne: 5%
[6]; dose 5 mg in 1-L container
  Fatality rate (%) Lasioderma serricorne: 18%
[6]; dose 10 mg in 1-L container
  Fatality rate (%) Lasioderma serricorne: 25%
[6]; dose 20 mg in 1-L container
  Fatality rate (%) Lasioderma serricorne: 42.11%
[6]; dose 30 mg in 1-L container
  Fatality rate (%) Lasioderma serricorne: 100%
[6]; dose 40 mg in 1-L container
  Fatality rate (%) Lasioderma serricorne: 100%

## CCCCCCCCCC [n-decane]
[1]; [7]
  Fatality rate (%) Tetranychus urticae: 100%
[2]; [7]
  Fatality rate (%) Solenopsis invicta: 100%
[3]; [7]
  Fatality rate (%) Anoplolepis longipes: 75%
[4]; [7]
  Fatality rate (%) Sitophilus oryzae: 100%
[5]; [7]
  Fatality rate (%) Blattella germanica: 100%
[6]; [7]
  Fatality rate (%) Lasioderma serricorne: 100%

## CCCCCCCC(C)C [2-methylnonane]
[1]; [7]
  Fatality rate (%) Tetranychus urticae: 100%
[2]; [7]
  Fatality rate (%) Solenopsis invicta: 100%
[3]; [7]
  Fatality rate (%) Anoplolepis longipes: 90%
[4]; [7]
  Fatality rate (%) Sitophilus oryzae: 100%
[5]; [7]
  Fatality rate (%) Blattella germanica: 100%
[6]; [7]
  Fatality rate (%) Lasioderma serricorne: 100%
